Test results from PubChem BioAssay AID248 (DTP/NCI, 2004).
“And” between values parts separate entries of the source, which are not always exact repeats. Identical values can stand only once. Toxic doses and inconclusive results are not listed. No stated cut-off is given here; in the data, active means T/C of 150% or more; inactive means T/C below 125%. Peptide text beside a SMILES is read from it. * marks the point of attachment. Boc = CC(C)(C)OC(=O)*; Bn = c1ccc(C*)cc1

Test system: L1210 leukemia ip in BDF1 mice, survival T/C
Experiment: NCI In Vivo Anticancer Drug Screen. Data for tumor model L1210 Leukemia (intraperitoneal) in B6D2F1 (BDF1) mice
Conditions: endpoint: mean survival time, higher = longer survival
Procedure, shortened: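 Value reflects the ratio of survival in compound-treated mice to survival in vehicle-treated controls, with both groups carrying the same transplanted tumor.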

[1] = dose: 100.0 mg/kg/injection, schedule: Q01DX001 (ip), vehicle: saline
[2] = dose: 100.0 mg/kg/injection, schedule: Q01DX009 (ip), vehicle: saline
[3] = dose: 200.0 mg/kg/injection, schedule: Q01DX001 (ip), vehicle: saline
[4] = dose: 200.0 mg/kg/injection, schedule: Q01DX009 (ip), vehicle: saline
[5] = dose: 400.0 mg/kg/injection, schedule: Q01DX001 (ip), vehicle: saline
[6] = dose: 100.0 mg/kg/injection, schedule: Q04DX003 (ip), vehicle: Klucel (hydroxypropylcellulose) (HPC)
[7] = dose: 200.0 mg/kg/injection, schedule: Q04DX003 (ip), vehicle: Klucel (hydroxypropylcellulose) (HPC)
[8] = dose: 400.0 mg/kg/injection, schedule: Q04DX003 (ip), vehicle: Klucel (hydroxypropylcellulose) (HPC)
[9] = dose: 100.0 mg/kg/injection, schedule: Q04DX003 (ip), vehicle: saline
[10] = dose: 200.0 mg/kg/injection, schedule: Q04DX003 (ip), vehicle: saline
[11] = dose: 400.0 mg/kg/injection, schedule: Q04DX003 (ip), vehicle: saline
[12] = dose: 50.0 mg/kg/injection, schedule: Q01DX001 (ip), vehicle: carboxymethylcellulose (CMC)
[13] = dose: 100.0 mg/kg/injection, schedule: Q01DX001 (ip), vehicle: carboxymethylcellulose (CMC)
[14] = dose: 200.0 mg/kg/injection, schedule: Q01DX001 (ip), vehicle: carboxymethylcellulose (CMC)
[15] = dose: 100.0 mg/kg/injection, schedule: Q01DX009 (ip), vehicle: Klucel (hydroxypropylcellulose) (HPC)
[16] = dose: 200.0 mg/kg/injection, schedule: Q01DX009 (ip), vehicle: Klucel (hydroxypropylcellulose) (HPC)

Measured: T/C

Cc1ccc(S(=O)(=O)CC#CCOc2ccccc2)cc1
inactive: dose: 50.0 mg/kg/injection, schedule: Q01DX009 (ip), vehicle: saline 92 % of control | [1] 92 % of control | [2] 105 % of control | [3] 97 % of control | [4] 92 % of control | [5] 101 % of control

Nc1ncnc2c1ncn2C1OCC(O)C(O)C1O (stereo not drawn)
inactive: [1] 106 % of control | [3] 98 % of control | [5] 91 % of control

COc1ccc(NC(=O)CCCc2ccc(N(CCCl)CCCl)cc2)cc1
inactive: dose: 4.0 mg/kg/injection, schedule: Q12HX018 (ip), vehicle: other 106 % of control | dose: 6.0 mg/kg/injection, schedule: Q12HX018 (ip), vehicle: other 121 % of control | dose: 8.0 mg/kg/injection, schedule: Q12HX018 (ip), vehicle: other 110 % of control

CCCCCCCCCCCCCCCCOc1ccc(C(=S)N2CCOCC2)cc1Cl
inactive: [6] 104 % of control | [7] 91 % of control | [8] 86 % of control

C[C@]12CC[C@H](O)CC1=CC[C@@H]1[C@@H]2CC[C@](C)(C(=O)O)[C@H]1CC1Nc2ccccc2C1=O (stereo partly drawn)
inactive: [1] 95 % of control | [9] 91 % of control | [3] 92 % of control and 91 % of control | [10] 95 % of control | [5] 97 % of control and 86 % of control | [11] 104 % of control

CCOC(=O)c1cc(-c2ccccc2)c(-c2ccccc2)c(-c2ccccc2)c1-c1ccccc1
inactive: [12] 97 % of control | [13] 100 % of control | [14] 97 % of control

CC(C)(C)C1CC(C(F)(F)F)(C(F)(F)F)OP(=O)(N2CCCCC2)O1 (stereo not drawn)
inactive: dose: 50.0 mg/kg/injection, schedule: Q01DX001 (ip), vehicle: Klucel (hydroxypropylcellulose) (HPC) 98 % of control | dose: 100.0 mg/kg/injection, schedule: Q01DX001 (ip), vehicle: Klucel (hydroxypropylcellulose) (HPC) 100 % of control | dose: 200.0 mg/kg/injection, schedule: Q01DX001 (ip), vehicle: Klucel (hydroxypropylcellulose) (HPC) 96 % of control

COc1ccc(OC)c(N=CC(=O)c2ccc(C)cc2)c1
inactive: dose: 75.0 mg/kg/injection, schedule: Q04DX003 (ip), vehicle: Klucel (hydroxypropylcellulose) (HPC) 95 % of control | dose: 150.0 mg/kg/injection, schedule: Q04DX003 (ip), vehicle: Klucel (hydroxypropylcellulose) (HPC) 94 % of control | dose: 300.0 mg/kg/injection, schedule: Q04DX003 (ip), vehicle: Klucel (hydroxypropylcellulose) (HPC) 97 % of control

CCOC(=O)C(=O)C(C#N)c1cccc2ccccc12 (stereo not drawn)
inactive: [6] 100 % of control | [7] 96 % of control

COC1=C2C=[N+](C)C3C(=C2C=CC1OC)Cc1cc2c(cc13)OCO2 (stereo not drawn)
inactive: [12] 104 % of control | [13] 107 % of control | [14] 102 % of control

OC(CNc1ccccc1)CN1CCCC1 (stereo not drawn)
inactive: [9] 89 % of control | [10] 94 % of control

CC(=O)OC(C)C1C2=C(C(=O)CC1(C)O)C(=O)c1c(ccc(-c3ccc4c(c3O)C(=O)C3=C(C4=O)C(C(C)OC(C)=O)C(C)(O)CC3=O)c1O)C2=O (stereo not drawn)
inactive: dose: 6.25 mg/kg/injection, schedule: Q01DX009 (ip), vehicle: saline with Tween-80 111 % of control | dose: 12.5 mg/kg/injection, schedule: Q01DX009 (ip), vehicle: saline with Tween-80 109 % of control

CC(=O)N1CCC(Cc2ccccc2)CC1
inactive: dose: 75.0 mg/kg/injection, schedule: Q01DX009 (ip), vehicle: saline with Tween-80 104 % of control

COC(=O)CNC(=O)C(Cc1ccc(OCc2ccccc2)cc1)NC(=O)C(CO)NC(=O)OC(C)(C)C (stereo not drawn) (Boc-Ser-Tyr(Bn)-Gly-OMe; configuration not given here)
inactive: dose: 100.0 mg/kg/injection, schedule: Q01DX009 (ip), vehicle: saline with Tween-80 102 % of control | dose: 200.0 mg/kg/injection, schedule: Q01DX009 (ip), vehicle: saline with Tween-80 98 % of control | dose: 400.0 mg/kg/injection, schedule: Q01DX009 (ip), vehicle: saline with Tween-80 88 % of control

Nc1nc(N)c(CCCCc2ccccc2)c(Cc2ccccc2)n1
inactive: dose: 50.0 mg/kg/injection, schedule: Q01DX009 (ip), vehicle: Klucel (hydroxypropylcellulose) (HPC) 98 % of control | [15] 106 % of control | [16] 98 % of control

CC(O)C(O)C(O)C(O)C(c1ccc(Cl)cc1)c1ccc(Cl)cc1 (stereo not drawn)
inactive: dose: 50.0 mg/kg/injection, schedule: Q01DX001 (ip), vehicle: saline 104 % of control | [1] 98 % of control

CCOC(=O)C1(C(=O)OCC)CCC(OCC)N1C(=O)c1cc2c(cc1[N+](=O)[O-])OCO2 (stereo not drawn)
inactive: [6] 99 % of control | [7] 105 % of control | [8] 97 % of control

O=C(CI)Nc1ccc(NC(=O)CI)cc1
inactive: [6] 90 % of control | [7] 95 % of control

COc1cc(CC(=O)O)c(Br)cc1C
inactive: [2] 97 % of control | dose: 100.0 mg/kg/injection, schedule: Q04DX003 (ip), vehicle: saline with Tween-80 101 % of control | [4] 109 % of control | dose: 200.0 mg/kg/injection, schedule: Q04DX003 (ip), vehicle: saline with Tween-80 104 % of control | dose: 400.0 mg/kg/injection, schedule: Q01DX009 (ip), vehicle: saline 92 % of control | dose: 400.0 mg/kg/injection, schedule: Q04DX003 (ip), vehicle: saline with Tween-80 108 % of control

NC(=O)c1cccc[n+]1Cc1cc(=O)[nH]c(=O)[nH]1
inactive: [9] 93 % of control | [10] 101 % of control | [11] 89 % of control

COc1ccc(CCNC(=O)Cc2ccccc2[N+](=O)[O-])cc1OC
inactive: dose: 10.0 mg/kg/injection, schedule: Q01DX001 (ip), vehicle: carboxymethylcellulose (CMC) 100 % of control | dose: 20.0 mg/kg/injection, schedule: Q01DX001 (ip), vehicle: carboxymethylcellulose (CMC) 100 % of control | dose: 40.0 mg/kg/injection, schedule: Q01DX001 (ip), vehicle: carboxymethylcellulose (CMC) 96 % of control | dose: 80.0 mg/kg/injection, schedule: Q01DX001 (ip), vehicle: carboxymethylcellulose (CMC) 96 % of control

CCCCCCCNc1ccc(C(=O)O)cc1
inactive: dose: 37.5 mg/kg/injection, schedule: Q01DX009 (ip), vehicle: saline 105 % of control | dose: 75.0 mg/kg/injection, schedule: Q01DX001 (ip), vehicle: saline 93 % of control | dose: 75.0 mg/kg/injection, schedule: Q01DX009 (ip), vehicle: saline 94 % of control | dose: 75.0 mg/kg/injection, schedule: Q04DX003 (ip), vehicle: saline 105 % of control | dose: 150.0 mg/kg/injection, schedule: Q01DX001 (ip), vehicle: saline 104 % of control | dose: 150.0 mg/kg/injection, schedule: Q01DX009 (ip), vehicle: saline 98 % of control | dose: 150.0 mg/kg/injection, schedule: Q04DX003 (ip), vehicle: saline 109 % of control | dose: 300.0 mg/kg/injection, schedule: Q01DX001 (ip), vehicle: saline 102 % of control | dose: 300.0 mg/kg/injection, schedule: Q04DX003 (ip), vehicle: saline 102 % of control

COc1cc(OC)c(N=Cc2ccc3c(c2)OCO3)cc1Cl
inactive: [15] 91 % of control | [16] 98 % of control | dose: 400.0 mg/kg/injection, schedule: Q01DX009 (ip), vehicle: Klucel (hydroxypropylcellulose) (HPC) 96 % of control
